± gives the standard deviation of the averaged measurements.
Columns and labels:
MK-1775 = compound: C=CCn1c(=O)c2cnc(Nc3ccc(N4CCN(C)CC4)cc3)nc2n1-c1cccc(C(C)(C)O)n1 [MK-1775]; assay: surviving fraction relative to DMSO-only wells; higher = less growth inhibition; conditions: exposure time: 5 days
Summary of the method: (§1)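 Log-phase tumour cells were seeded at 250–500 per well in 384-well plates and, from 24 hours after seeding, exposed continuously for five days to inhibitors at 0.5, 1, 5, 10, 50, 100, 500 and 1000 nM. Surviving fraction is CellTiter-Glo luminescence normalised to the median of DMSO-only wells. Luminescence was measured after 10 minutes at room temperature, and only lines screened three times with replicate Pearson r >0.7 and median Z' >0.3 were kept.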

AFIMOXIFENE = compound: CC/C(=C(\c1ccc(O)cc1)c1ccc(OCCN(C)C)cc1)c1ccccc1 [AFIMOXIFENE]; assay: as above; conditions: exposure time: 5 days
Summary of the method: as §1

Row | Test System | surviving fraction (MK-1775; 0.5 nM) | surviving fraction (MK-1775; 1 nM) | surviving fraction (MK-1775; 5 nM) | surviving fraction (MK-1775; 10 nM) | surviving fraction (MK-1775; 50 nM) | surviving fraction (MK-1775; 100 nM) | surviving fraction (MK-1775; 500 nM) | surviving fraction (MK-1775; 1000 nM) | surviving fraction (AFIMOXIFENE; 0.5 nM) | surviving fraction (AFIMOXIFENE; 1 nM) | surviving fraction (AFIMOXIFENE; 5 nM) | surviving fraction (AFIMOXIFENE; 10 nM) | surviving fraction (AFIMOXIFENE; 50 nM) | surviving fraction (AFIMOXIFENE; 100 nM) | surviving fraction (AFIMOXIFENE; 500 nM) | surviving fraction (AFIMOXIFENE; 1000 nM)
1 | SYO1 SYNOVIAL | 1.01 ± 0.014 | 0.977 ± 0.053 | 1 ± 0.014 | 0.9618 ± 0.0076 | 0.658 ± 0.033 | 0.317 ± 0.076 | 0.473 ± 0.11 | 0.0491 ± 0.0039 | 0.993 ± 0.023 | 1.01 ± 0.04 | 1.04 ± 0.013 | 1.03 ± 0.072 | 0.954 ± 0.035 | 0.982 ± 0.028 | 0.939 ± 0.023 | 1.04 ± 0.087
2 | T47D BREAST | 1.07 ± 0.021 | 1.05 ± 0.014 | 1.1 ± 0.044 | 1.01 ± 0.015 | 1.06 ± 0.065 | 0.979 ± 0.025 | 0.453 ± 0.025 | 0.38 ± 0.024 | 1.06 ± 0.052 | 1.11 ± 0.032 | 0.955 ± 0.0067 | 0.98 ± 0.048 | 0.95 ± 0.032 | 0.958 ± 0.034 | 0.888 ± 0.024 | 0.883 ± 0.037
3 | U2OS BONE | 1.03 ± 0.028 | 0.991 ± 0.043 | 1.07 ± 0.032 | 1.07 ± 0.034 | 0.922 ± 0.039 | 0.641 ± 0.028 | 0.133 ± 0.002 | 0.0693 ± 0.0045 | 1.06 ± 0.056 | 1.07 ± 0.035 | 1.08 ± 0.024 | 1.1 ± 0.022 | 1.12 ± 0.015 | 1.1 ± 0.017 | 1.08 ± 0.057 | 1.01 ± 0.021
4 | VCAP PROSTATE | 1.14 ± 0.079 | 1.14 ± 0.19 | 1.09 ± 0.042 | 1.08 ± 0.08 | 1.04 ± 0.12 | 0.52 ± 0.11 | 0.0963 ± 0.019 | 0.121 ± 0.019 | 0.993 ± 0.093 | 1.06 ± 0.1 | 1.07 ± 0.065 | 1.11 ± 0.098 | 1.12 ± 0.11 | 1.09 ± 0.019 | 1.07 ± 0.17 | 0.941 ± 0.075
5 | VP229 BREAST | 1.13 ± 0.14 | 1.01 ± 0.044 | 1.01 ± 0.056 | 1.07 ± 0.063 | 1.02 ± 0.034 | 0.754 ± 0.093 | 0.41 ± 0.056 | 0.261 ± 0.013 | 1.25 ± 0.37 | 1.2 ± 0.13 | 1.09 ± 0.08 | 1.16 ± 0.13 | 1.14 ± 0.07 | 1.16 ± 0.061 | 0.989 ± 0.21 | 1 ± 0.13
6 | YAMATO SYNOVIAL | 1.31 ± 0.14 | 1.29 ± 0.064 | 1.43 ± 0.074 | 1.2 ± 0.093 | 1.27 ± 0.12 | 0.972 ± 0.036 | 0.463 ± 0.031 | 0.424 ± 0.018 | 1.22 ± 0.14 | 1.27 ± 0.022 | 1.37 ± 0.14 | 1.4 ± 0.037 | 1.23 ± 0.14 | 1.28 ± 0.096 | 1.23 ± 0.066 | 1.31 ± 0.14
7 | ZR751 BREAST | 1.18 ± 0.14 | 1 ± 0.16 | 0.999 ± 0.19 | 1.04 ± 0.15 | 1.01 ± 0.16 | 1.04 ± 0.17 | 0.733 ± 0.1 | 0.622 ± 0.086 | 1.13 ± 0.23 | 1.21 ± 0.18 | 1.09 ± 0.21 | 1.31 ± 0.19 | 1.09 ± 0.22 | 1.07 ± 0.17 | 1.03 ± 0.19 | 0.993 ± 0.084

From the supplement of paper PMC6045584
